Values of other authors in US20220001038A1, “CONJUGATES FOR DETECTION OF AXILLARY LYMPH NODE METASTASES” (H. LEE MOFFITT CANCER CENTER AND RESEARCH INSTITUTE, INC., priority 2017, published 2022).

Tested on: hCA IX and XII

[N-]=[N+]=NCCCCCCOc1ccc(-c2nn(-c3ccccc3)cc2-c2nc3ccccc3[nH]2)cc1 [compound 6]
affinity/selectivity for CAIX and CAXII (in words): inhibitor with hCA IX and XII selectivity
